Laboratory results: publication PMC4018403, “Transient Receptor Potential Ankyrin 1 Receptor Activation In Vitro and In Vivo by Pro-tussive Agents: GRC 17536 as a Promising Anti-Tussive Therapeutic” (PLoS ONE, 2014)
“Also recorded” adds a separate entry of the source. Read-outs that look alike come from different tables or passages of the source.

Experiments:
[1] = tested on: citric acid induced cough response; experiment: Citric acid induced conscious cough model; format: in vivo, guinea pig; conditions: 2 h before citric acid aerosol (0.4 M); for Inhibition of cough response: 30 mg/kg i.p.; for Inhibition of cough compared to vehicle: coughs recorded 10 minutes
Procedure: Male Hartley guinea pigs (200–600 g, Harlan, UK) were acclimatized in cages (20–22°C, with a light/dark cycle of 12/12 hours) before beginning of the experiments and were maintained on an ad lib standard guinea pig pellet diet and water containing dietary amounts of ascorbic acid.
Cough was detected both by pressure change and by sound and recorded with a Buxco cough analyzer (Buxco, Wilmington, NC, USA) as described earlier. Guinea pigs were randomly assigned to various test groups and were treated with different doses of GRC 17536 or Dextromethorphan i.p. before tussive challenge. The Vehicle control group received only 0.5% methyl cellulose. Two hours after i.p. administration of vehicle or test compounds, animals were placed in individual whole body plethysmographs and were exposed to citric acid aerosol (0.4 M) and the incidences of cough were recorded for 10 minutes with the help of Buxco cough analyzer.
For in vitro experiments, data was analyzed using GraphPad Prism 3.0 (GraphPad Software Inc. San Diego, CA, USA). For in vivo experiment, data from the treatment groups were compared with the control group. Mean values were statistically analyzed by one-way analysis of variance (ANOVA) followed by the Dunnett's Multiple Comparisons Test to evaluate significant differences between groups.

TRPV1 [2] = molecular target: T1, TRPV1 (Homo sapiens, UniProt Q8NER1); experiment: TRP selectivity, hTRPV1/CHO, Capsaicin as agonist; format: cell-based; conditions: agonist Capsaicin (1 µM)
T1 construct: expressed in transfected cells
T1 sequence (Q8NER1 whole entry): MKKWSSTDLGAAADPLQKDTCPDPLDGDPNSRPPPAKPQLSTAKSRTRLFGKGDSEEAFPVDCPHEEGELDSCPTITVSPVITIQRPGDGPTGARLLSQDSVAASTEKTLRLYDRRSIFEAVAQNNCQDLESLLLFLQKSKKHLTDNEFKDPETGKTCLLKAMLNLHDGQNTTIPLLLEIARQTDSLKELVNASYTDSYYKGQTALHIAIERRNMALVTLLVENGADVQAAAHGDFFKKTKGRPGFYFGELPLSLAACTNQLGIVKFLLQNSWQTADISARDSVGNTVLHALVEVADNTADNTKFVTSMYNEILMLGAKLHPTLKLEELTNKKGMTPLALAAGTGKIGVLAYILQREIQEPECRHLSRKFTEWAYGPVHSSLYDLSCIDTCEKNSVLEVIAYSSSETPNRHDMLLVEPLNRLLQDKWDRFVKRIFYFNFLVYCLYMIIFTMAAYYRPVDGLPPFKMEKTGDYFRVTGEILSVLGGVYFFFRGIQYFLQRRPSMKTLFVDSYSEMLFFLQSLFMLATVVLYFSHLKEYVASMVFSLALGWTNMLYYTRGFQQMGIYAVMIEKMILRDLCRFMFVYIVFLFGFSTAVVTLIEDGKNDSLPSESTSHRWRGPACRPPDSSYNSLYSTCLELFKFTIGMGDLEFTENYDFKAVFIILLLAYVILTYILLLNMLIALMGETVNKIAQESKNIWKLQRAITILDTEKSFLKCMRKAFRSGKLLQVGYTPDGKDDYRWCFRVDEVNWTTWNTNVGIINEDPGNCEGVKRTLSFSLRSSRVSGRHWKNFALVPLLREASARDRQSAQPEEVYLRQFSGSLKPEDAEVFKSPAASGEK
Procedure: (§1) Human lung fibroblast cells, CCD19-Lu (ATCC CCL-210) were obtained from American Type Culture Collection (ATCC; Rockville, MD, USA) and cultured in MEM supplemented with 10% FBS. Human pulmonary alveolar epithelial cell line A549 (ATCC CCL-185) was also obtained from ATCC and maintained in DMEM F-12 supplemented with 10% FBS. Both the cell types were cultured at 37°C in humidified air containing 5% CO2. Chinese hamster ovary (CHO) cells stably expressing human TRPA1 (hTRPA1/CHO), TRPV1 (hTRPV1/CHO), TRPV3 (hTRPV3/CHO), TRPV4 (hTRPV4/CHO and TRPM8 (hTRPM8/CHO were generated in-house and maintained in DMEM F-12 supplemented with 10% FBS and G418.
(§2) Fluorimetric and radiometric Ca^+2 influx assay was performed as described earlier. GRC 17536, GRC 17770, compound 7 or GRC 6211 was added to the cells 15 minutes prior to addition of agonist. Citric acid stock solution (1 M) was prepared in dH2O. Subsequent dilutions were made in Ca^+2, Mg^+2 free PBS (pH 7.3). No significant change in pH was observed upto 10 mM citric acid. At 30 mM concentration of citric acid, the pH of the solution dropped to 5.5. TLR ligands - LPS (10 µg/ml, TLR4), loxoribine (10 µM, TLR7) and ssRNA40 (1 µg/ml, TLR8) were dissolved in media and added to the cells for 16–18 hours. […]

TRPV3 = molecular target: T2, TRPV3 (Homo sapiens, UniProt Q8NET8); experiment: TRP selectivity, hTRPV3/CHO, 2-APB as agonist; format: cell-based; conditions: agonist 2-APB (1 mM)
T2 construct: expressed in transfected cells
T2 sequence (Q8NET8 1-790): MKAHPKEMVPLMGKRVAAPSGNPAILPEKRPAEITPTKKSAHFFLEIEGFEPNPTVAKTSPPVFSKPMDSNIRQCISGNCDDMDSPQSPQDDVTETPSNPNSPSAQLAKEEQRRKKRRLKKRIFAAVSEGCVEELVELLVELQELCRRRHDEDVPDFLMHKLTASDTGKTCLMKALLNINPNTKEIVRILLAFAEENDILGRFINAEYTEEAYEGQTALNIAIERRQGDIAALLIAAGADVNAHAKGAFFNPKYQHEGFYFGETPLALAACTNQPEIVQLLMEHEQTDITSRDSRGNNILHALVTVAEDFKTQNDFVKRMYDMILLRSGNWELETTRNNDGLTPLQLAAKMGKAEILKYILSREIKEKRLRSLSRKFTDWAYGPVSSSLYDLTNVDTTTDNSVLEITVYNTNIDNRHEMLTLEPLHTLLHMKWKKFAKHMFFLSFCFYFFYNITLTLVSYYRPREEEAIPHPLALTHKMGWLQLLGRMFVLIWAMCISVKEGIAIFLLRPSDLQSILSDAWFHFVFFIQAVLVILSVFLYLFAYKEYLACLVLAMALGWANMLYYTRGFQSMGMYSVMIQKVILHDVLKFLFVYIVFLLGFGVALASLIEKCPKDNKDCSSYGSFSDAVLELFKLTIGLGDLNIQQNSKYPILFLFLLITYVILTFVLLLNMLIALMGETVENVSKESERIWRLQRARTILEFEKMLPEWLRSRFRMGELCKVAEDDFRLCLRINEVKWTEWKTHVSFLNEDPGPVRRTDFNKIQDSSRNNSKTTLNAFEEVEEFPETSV
Procedure: as §1, §2

TRPV4 = molecular target: T3, TRPV4 (Homo sapiens, UniProt Q9HBA0); experiment: TRP selectivity, hTRPV4/CHO, 4α-PDD as agonist; format: cell-based; conditions: agonist 4α-PDD (30 µM)
T3 construct: expressed in transfected cells
T3 sequence (Q9HBA0 whole entry): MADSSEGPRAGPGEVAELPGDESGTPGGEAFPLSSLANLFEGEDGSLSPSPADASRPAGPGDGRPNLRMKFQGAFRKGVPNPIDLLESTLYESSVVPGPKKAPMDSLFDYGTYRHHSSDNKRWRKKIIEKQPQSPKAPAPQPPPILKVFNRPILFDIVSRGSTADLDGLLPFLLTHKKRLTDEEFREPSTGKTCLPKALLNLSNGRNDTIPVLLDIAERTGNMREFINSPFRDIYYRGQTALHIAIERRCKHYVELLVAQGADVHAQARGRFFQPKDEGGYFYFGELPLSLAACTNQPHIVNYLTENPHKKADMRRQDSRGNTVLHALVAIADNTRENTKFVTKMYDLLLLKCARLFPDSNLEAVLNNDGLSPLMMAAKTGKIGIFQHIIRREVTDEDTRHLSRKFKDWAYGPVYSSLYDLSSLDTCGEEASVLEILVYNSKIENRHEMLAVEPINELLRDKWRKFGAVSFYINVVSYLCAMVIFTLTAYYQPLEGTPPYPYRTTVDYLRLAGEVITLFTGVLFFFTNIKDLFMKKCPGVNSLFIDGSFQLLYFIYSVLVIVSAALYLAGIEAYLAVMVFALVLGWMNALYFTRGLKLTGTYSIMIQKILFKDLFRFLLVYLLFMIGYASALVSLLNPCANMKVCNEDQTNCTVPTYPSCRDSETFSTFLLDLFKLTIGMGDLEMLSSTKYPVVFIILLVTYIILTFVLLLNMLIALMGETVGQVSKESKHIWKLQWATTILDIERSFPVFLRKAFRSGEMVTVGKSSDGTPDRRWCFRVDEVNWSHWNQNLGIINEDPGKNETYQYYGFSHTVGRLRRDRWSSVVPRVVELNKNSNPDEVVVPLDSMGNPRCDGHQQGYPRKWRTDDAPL
Procedure: as §1, §2

TRPM8 = molecular target: T4, TRPM8 (Homo sapiens, UniProt Q7Z2W7); experiment: TRP selectivity, hTRPM8/CHO, Icilin as agonist; format: cell-based; conditions: agonist Icilin (250 nM)
T4 construct: expressed in transfected cells
T4 sequence (Q7Z2W7 whole entry): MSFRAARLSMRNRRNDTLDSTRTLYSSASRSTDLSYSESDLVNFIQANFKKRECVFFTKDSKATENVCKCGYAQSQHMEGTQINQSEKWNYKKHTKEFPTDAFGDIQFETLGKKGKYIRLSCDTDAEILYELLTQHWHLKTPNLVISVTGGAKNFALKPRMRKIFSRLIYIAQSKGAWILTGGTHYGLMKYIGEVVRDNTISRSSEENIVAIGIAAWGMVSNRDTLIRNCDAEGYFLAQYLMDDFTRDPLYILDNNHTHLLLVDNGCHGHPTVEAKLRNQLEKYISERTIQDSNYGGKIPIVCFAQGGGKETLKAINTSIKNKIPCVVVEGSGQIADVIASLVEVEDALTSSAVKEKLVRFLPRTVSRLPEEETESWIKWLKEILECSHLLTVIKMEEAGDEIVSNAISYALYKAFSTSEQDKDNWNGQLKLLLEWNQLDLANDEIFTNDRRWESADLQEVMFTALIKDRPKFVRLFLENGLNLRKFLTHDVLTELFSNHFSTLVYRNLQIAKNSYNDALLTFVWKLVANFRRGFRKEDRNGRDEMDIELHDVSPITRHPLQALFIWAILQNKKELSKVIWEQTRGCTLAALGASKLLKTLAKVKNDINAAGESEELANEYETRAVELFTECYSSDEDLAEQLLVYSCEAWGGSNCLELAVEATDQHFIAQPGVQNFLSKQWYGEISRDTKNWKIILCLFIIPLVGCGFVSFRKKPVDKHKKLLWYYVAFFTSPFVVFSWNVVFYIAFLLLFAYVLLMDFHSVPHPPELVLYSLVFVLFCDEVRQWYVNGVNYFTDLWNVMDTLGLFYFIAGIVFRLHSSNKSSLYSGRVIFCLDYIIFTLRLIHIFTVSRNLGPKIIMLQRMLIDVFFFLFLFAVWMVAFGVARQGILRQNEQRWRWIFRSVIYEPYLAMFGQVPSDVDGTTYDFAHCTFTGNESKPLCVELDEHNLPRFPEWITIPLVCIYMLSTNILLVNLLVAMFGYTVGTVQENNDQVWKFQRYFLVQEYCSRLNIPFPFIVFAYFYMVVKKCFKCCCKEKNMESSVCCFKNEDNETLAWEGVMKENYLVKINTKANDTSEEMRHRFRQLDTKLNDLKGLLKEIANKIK
Procedure: as §1, §2

[3] = Plasma concentration in the cough model; format: in vivo; conditions: at the EDmax dose (∼89% suppression of cough), guinea pig, i.p.
TRPA1 [4] = molecular target: T5, TRPA1 (Homo sapiens, UniProt O75762); design: method as in PMID 21848366; conditions: CCD19-Lu cells; read-out: IC50 with AITC as agonist; cited from earlier work
T5 sequence (O75762 whole entry): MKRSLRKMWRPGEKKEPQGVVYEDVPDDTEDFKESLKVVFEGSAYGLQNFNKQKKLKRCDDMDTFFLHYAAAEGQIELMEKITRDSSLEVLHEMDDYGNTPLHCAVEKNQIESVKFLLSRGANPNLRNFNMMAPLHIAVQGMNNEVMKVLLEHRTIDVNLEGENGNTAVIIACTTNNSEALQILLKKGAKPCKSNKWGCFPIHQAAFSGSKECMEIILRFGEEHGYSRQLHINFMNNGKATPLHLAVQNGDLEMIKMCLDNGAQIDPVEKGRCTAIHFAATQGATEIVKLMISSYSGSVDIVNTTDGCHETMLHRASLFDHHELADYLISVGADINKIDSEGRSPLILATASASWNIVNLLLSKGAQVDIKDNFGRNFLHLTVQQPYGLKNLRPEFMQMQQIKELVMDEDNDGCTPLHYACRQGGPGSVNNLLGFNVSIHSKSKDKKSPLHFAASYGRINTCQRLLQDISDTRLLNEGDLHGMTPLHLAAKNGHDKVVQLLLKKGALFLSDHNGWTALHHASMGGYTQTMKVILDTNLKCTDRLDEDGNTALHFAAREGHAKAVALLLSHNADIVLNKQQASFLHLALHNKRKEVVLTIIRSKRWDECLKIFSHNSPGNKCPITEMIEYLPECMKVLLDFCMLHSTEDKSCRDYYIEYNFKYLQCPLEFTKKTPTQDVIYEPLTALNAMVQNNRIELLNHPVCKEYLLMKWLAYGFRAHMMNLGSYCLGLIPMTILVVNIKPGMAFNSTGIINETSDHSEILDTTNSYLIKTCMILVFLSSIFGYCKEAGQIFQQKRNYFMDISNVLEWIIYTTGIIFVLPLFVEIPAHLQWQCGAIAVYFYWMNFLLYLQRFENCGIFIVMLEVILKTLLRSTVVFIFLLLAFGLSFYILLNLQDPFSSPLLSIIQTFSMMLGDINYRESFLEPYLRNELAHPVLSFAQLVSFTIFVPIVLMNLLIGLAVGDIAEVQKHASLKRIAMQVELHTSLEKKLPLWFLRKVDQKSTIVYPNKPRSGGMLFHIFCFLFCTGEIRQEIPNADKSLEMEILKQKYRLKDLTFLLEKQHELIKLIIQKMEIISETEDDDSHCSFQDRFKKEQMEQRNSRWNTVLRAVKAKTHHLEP

TRPA1 [5] = molecular target: T5, TRPA1; experiment: Citric acid-induced Ca+2 influx in hTRPA1/CHO cells; format: cell-based; design: expressed in transfected cells
Procedure: as §1
(§3) Fluorimetric and radiometric Ca^+2 influx assay was performed as described earlier. GRC 17536, GRC 17770, compound 7 or GRC 6211 was added to the cells 15 minutes prior to addition of agonist. Citric acid stock solution (1 M) was prepared in dH2O. Subsequent dilutions were made in Ca^+2, Mg^+2 free PBS (pH 7.3). No significant change in pH was observed upto 10 mM citric acid. At 30 mM concentration of citric acid, the pH of the solution dropped to 5.5. TLR ligands - LPS (10 µg/ml, TLR4), loxoribine (10 µM, TLR7) and ssRNA40 (1 µg/ml, TLR8) were dissolved in media and added to the cells for 16–18 hours. TRP selectivity of GRC 17536 and compound 7 was performed for TRPV1, TRPV3, TRPV4 and TRPM8 using Capsaicin (1 µM), 2-APB (1 mM), 4α-PDD (30 µM) and Icilin (250 nM) respectively, as agonist.

TRPA1 [6] = molecular target: T5, TRPA1; experiment: TLR ligand-enhanced 45Ca+2 uptake in hTRPA1/CHO cells; format: cell-based; design: expressed in transfected cells; conditions: hTRPA1/CHO
Procedure: as §1, §3

TRPA1 [7] = molecular target: T5, TRPA1; experiment: Citric acid-induced Ca+2 influx in CCD19-Lu cells; format: cell-based; design: A549 cells have been reported to express endogenous TRPA1; host or cells: A549
Procedure: as §1, §3

TRPA1 [8] = molecular target: T5, TRPA1; experiment: Citric acid-induced Ca+2 influx in A549 cells; format: cell-based; design: A549 cells have been reported to express endogenous TRPA1; host or cells: A549
Procedure: as §1, §3

TRPA1 [9] = molecular target: T5, TRPA1; experiment: TLR ligand-enhanced 45Ca+2 uptake in A549 cells; format: cell-based; design: A549 cells have been reported to express endogenous TRPA1; host or cells: A549; conditions: A549
Procedure: as §1, §3

TRPA1 [10] = molecular target: T5, TRPA1; design: A549 cells have been reported to express endogenous TRPA1; host or cells: A549; method as in PMID 21848366; conditions: A549 cells; read-out: IC50 with AITC as agonist; cited from earlier work
TRPV1 [11] = molecular target: T1, TRPV1; experiment: Citric acid effect on Ca+2 influx in hTRPV1/CHO cells; format: cell-based; conditions: data not shown
Procedure: as §1, §2

[12] = antagonist added 15 minutes prior to agonist, read-out: IC50, inhibition of citric acid induced Ca+2 influx
[13] = 10 nM, stated for both cell types
[14] = highest concentration of inducer, one range printed for CCD19-Lu and A549 together

In the case of `COc1ccc2c(c1)[C@]13CCCC[C@@H]1[C@H](C2)N(C)CC3` [Dextromethorphan, reference compound], the “Inhibition of cough response” value [1] is reported as 66%.

With `Cn1c(=O)c2c(CC(=O)Nc3nc(-c4ccc(F)c(C(F)(F)F)c4F)cs3)csc2n(C)c1=O` [GRC 17536] the “% Inhibition at 1 µM, TRPV1” value (TRPV1 [2]) was 5.6%, the “% Inhibition at 1 µM, TRPV3” value (TRPV3) was 27.3% and the “% Inhibition at 1 µM, TRPV4” value (TRPV4) was 8.2%. The “% Inhibition at 1 µM, TRPM8” value (TRPM8) was 8.6%, the “Inhibition of cough response” value [1] was “no significant protective response” and the “Inhibition of cough compared to vehicle” value ([1]; 60 mg/kg i.p.) was 79%. For the same compound, the “Inhibition of cough compared to vehicle” value ([1]; 100 mg/kg i.p.) was 89%, the “Free mean plasma concentration” value [3] was “around its in vitro IC50 value” and the IC50 (TRPA1 [4]) was 2.71 nM. The IC50 (TRPA1 [5]; [12]) was 4.6 nM, the “Inhibition of LPS + AITC induced 45Ca+2 uptake” value (TRPA1 [6]; 10 nM) was 51.3% and the “Inhibition of Loxoribine + AITC induced 45Ca+2 uptake” value (TRPA1 [6]; 10 nM) was 56.6%. The “Inhibition of ssRNA40 + AITC induced 45Ca+2 uptake” value (TRPA1 [6]; 10 nM) was 63.0%, the “Inhibition of TLR ligand-enhanced 45Ca+2 uptake (summary)” value (TRPA1 [6]; [13]) was roughly 50% and the “Inhibition of 45Ca+2 uptake at the highest concentration (summary)” value (TRPA1 [6]; 1 µM) was “Complete inhibition”. For the same compound, the “Inhibition of LPS + AITC induced 45Ca+2 uptake” value (TRPA1 [6]; 1 µM) was 98.4%, the “Inhibition of Loxoribine + AITC induced 45Ca+2 uptake” value (TRPA1 [6]; 1 µM) was 98.6% and the “Inhibition of ssRNA40 + AITC induced 45Ca+2 uptake” value (TRPA1 [6]; 1 µM) was 96.1%. The IC50 (TRPA1 [7]; [12]) was 8.2 nM, the IC50 (TRPA1 [8]; [12]) was 5 nM and the “Inhibition of LPS + AITC induced 45Ca+2 uptake” value (TRPA1 [9]; 10 nM) was 40.4%. The “Inhibition of Loxoribine + AITC induced 45Ca+2 uptake” value (TRPA1 [9]; 10 nM) was 68.1%, the “Inhibition of ssRNA40 + AITC induced 45Ca+2 uptake” value (TRPA1 [9]; 10 nM) was 53.2% and the “Inhibition of TLR ligand-enhanced 45Ca+2 uptake (summary)” value (TRPA1 [9]; [13]) was roughly 50%. For the same compound, the “Inhibition of 45Ca+2 uptake at the highest concentration (summary)” value (TRPA1 [9]; 1 µM) was “Complete inhibition”, the “Inhibition of LPS + AITC induced 45Ca+2 uptake” value (TRPA1 [9]; 1 µM) was 95.3% and the “Inhibition of Loxoribine + AITC induced 45Ca+2 uptake” value (TRPA1 [9]; 1 µM) was 97.4%. For the same compound, the “Inhibition of ssRNA40 + AITC induced 45Ca+2 uptake” value (TRPA1 [9]; 1 µM) was 98.7% and the IC50 (TRPA1 [10]) was 2.06 nM.

In the case of `O=C(O)CC(O)(CC(=O)O)C(=O)O` [citric acid], the “Ca+2 influx response to citric acid” value (TRPV1 [11]) is reported as “lack of any significant response; also recorded: did not observe any increase”, the “Citric acid concentration of peak Ca+2 influx” value (TRPA1 [5]) is reported as 3 mM and the “Citric acid concentration that elicited a drop in Ca+2 influx” value (TRPA1 [5]) is reported as 10 mM. The “Ca+2 influx over basal” value (TRPA1 [5]; highest concentration of citric acid) was roughly 40 fold, the “Citric acid concentration of maximum Ca+2 influx” value (TRPA1 [7]) was 10 mM and the “Citric acid concentration that elicited a drop in Ca+2 influx” value (TRPA1 [7]) was 30 mM. For the same compound, the “Induction of Ca+2 influx over basal” value (TRPA1 [7]; [14]) was 4–20 fold, the “Citric acid concentration of peak Ca+2 influx” value (TRPA1 [8]) was 3 mM and the “Citric acid concentration that elicited a drop in Ca+2 influx” value (TRPA1 [8]) was 5 mM. For the same compound, the “Induction of Ca+2 influx over basal” value (TRPA1 [8]; [14]) was 4–20 fold.
